The values that follow come from patent US20180042223A1, “COMPOSITION COMPRISING A HYDROGEL AND PESTICIDES” (priority 2014, published 2018).

This experiment concerns spider mite (Tetranychus uricae). The experiment is described as follows: Effectiveness of pesticide with NovioHelix hydrogel adjuvant: dead percentage of spider mites on paprika plants. In kind it is in vivo. As to conditions: day 5 after treatment; infected paprika plants; applied till run off; Noviohelix 3 mg/mL where used. Here is the method: Paprika plants infected with spider mite (Tetranychus uricae) were used as experiment samples. All paprika (±20cm) were artificially infected with spiders 5 days before the experiments. The insecticide Spiromesifen (Spiromesifen, 240 g/l, Oberon) was used to against spiders. Noviohelix (3 mg/mL) was used as an adjuvant. All samples were applied with pesticide until ‘till run off’ (the first droplet of a composition fall off the leave). The effectiveness of Spiromesifen either with or without NovioHelix was determined based on the dead percentage of spiders after treatment. The spiders both in mature and immature phases were counted before and at day 5 after experiment.

Molecules are shown by their SMILES.

With `Cc1cc(C)c(C2=C(OC(=O)CC(C)(C)C)C3(CCCC3)OC2=O)c(C)c1` [Spiromesifen], the “% dead (dead percentage of spider)” value turned out to be 84.8%.
